Like-named read-outs stand apart in the source and are kept apart here. Each block holds one compound with its values, some of them ahead of it.
Experiments:
[1] = tested on: mTORC1 (pS6 S240/244, P-4EBP1); assay: Western blot analysis in SNU-449 cells (E1010); assay type: cell-based, human; details: 3 hours (FIG. 13B)
Experimental: FIGS. 13A-13B. FIG. 13A: MCF-7 cells were treated for 4 hours with E1035 and M1071 before harvesting. FIG. 13B: SNU-449 cells were treated with 3 hours with E1010 before harvesting. Cells were lysed and blotted for the indicated proteins. M1071 has the narrowest concentration range between mTORC1 and mTORC2 inhibition. The concentration range between mTORC1 and mTORC2 inhibition widens for E1035.
Cell Culture and Western Blot Analysis. Cells were grown in 6-well plates and treated with inhibitor at the indicated concentrations or with vehicle (0.1% DMSO). Treated cells were lysed, and lysates were resolved by SDS-PAGE, transferred to nitrocellulose and blotted. All antibodies were purchased from Cell Signaling Technology.

[2] = tested on: HCT-15; assay: Cell viability assay (CellTiter-Glo), HCT-15; assay type: cell-based, human; details: for EC50: 72 h after compound treatment
Experimental: (§1) The cells were grown in appropriate medium (vender recommended) supplemented with 10% heat-inactivated fetal bovine serum (FBS), in tissue culture dishes placed in a humidified incubator maintained at 37° C. in an atmosphere of 5% CO2 and 95% air.
(§2) Cell viability assay. Cells were seeded in a 96-multiwell plate at 3000-4000 cells per well in medium containing FBS and cells were incubated at 37° C. overnight. After 18-20 h, compounds in 10×DMSO solution (n=3) were added to the cells and were incubated for additional 3 days in a humidified incubator in an atmosphere of 5% CO2 and 95% air. After treatment of Cell Titer-Glo® luminescent cell viability assay reagent (Promega Corporation, Madison, WI USA), the luminescence value was recorded using SpectraMax M5 Multi-Mode Microplate Readers (Molecular Devices, LLC, Sunnyvale, CA USA). Concentration response curves were generated on GraphPad Prism (GraphPad Software, La Jolla, CA USA) by calculating the decrease in luminescence values in compound-treated samples relative to the DMSO controls.
(§3) Anti-proliferative effects of compounds were evaluated in human colorectal cancer HCT-15 cells (mutation: KRAS, PIK3CA), human hepatocellular carcinoma SNU-449 (mutation: TP53, CDKN2A), SNU-398 (mutation: CTNNB 1), SNU-182 (mutation: TP53) and renal adenocarcinoma 786-O (mutation: VHL, PTEN, TP53, CDKN2A) in 72 h after compound treatment.

[3] = tested on: SNU-449; assay: Cell viability assay (CellTiter-Glo), SNU-449; details: for EC50: read-out: EC50 (nM) SNU-449; for inhibition at 10 µM: SNU-449, read-out: % inhibition at 10 μM SNU-449
Experimental: as §1, §2, §3

[4] = tested on: mTORC1 and mTORC2 downstream signaling (pS6, p4E-BP1, pAkt S473); assay: Downstream signaling of mTOR by immunoblotting, dose dependence, HCT-15 and SNU-449 cells; assay type: cell-based, human; details: immunoblot at 3 h after compound treatment
Experimental: Downstream signaling of mTOR was tested using an immunoblotting method at 3 h after compound treatment.

[5] = tested on: SNU-398; assay: Cell viability assay (CellTiter-Glo), SNU-398; assay type: cell-based, human; details: for EC50: 72 h after compound treatment; for inhibition at 10 µM: read-out: % inhibition at 10 μM SNU-398, 10 μM
Experimental: as §1, §2, §3

[6] = tested on: 786-O; assay: Cell viability assay (CellTiter-Glo), 786-O; assay type: cell-based, human
Experimental: as §1, §2, §3

[7] = tested on: SNU-182; assay: Cell viability assay (CellTiter-Glo), SNU-182; assay type: cell-based, human; details: for EC50: 72 h after compound treatment; for inhibition at 10 µM: read-out: % inhibition at 10 μM SNU-182, 10 μM
Experimental: as §1, §2, §3

[8] = target: mTOR (Homo sapiens, UniProt P42345); assay: Potency of the ASi mTOR inhibition; assay type: biochemical
[9] = Effect on blood glucose level in mice; details: mice (n=3), intraperitoneal, Rapamycin treatment group (5 mg/kg, FIG. 10)
Text: Effect on blood glucose level. […] Blood glucose levels (mg/dL) were monitored.

[10] = tested on: mTORC1 and mTORC2 signaling (pS6, p4E-BP1, pAkt S473); assay: Time-course effects on mTORC1 and mTORC2 signaling in SNU-449; assay type: cell-based, human; details: 0.33-24 h
Experimental: Cellular Signaling Effects of Class mTOR Inhibitors. Cells were seeded in 60 mm cell culture dishes and incubated 1-2 days until 70-90% confluency. Cells were treated with compound solution in DMSO (1000×) and incubated at 37° C. in a 5% CO2 humidified incubator for a given length of time. Whole cell lysates were prepared using RIPA buffer (R^3792) (TEKnova, Hollister, CA USA) with a phosphatase inhibitor cocktail tablet PhosStop and a protease inhibitor cocktail tablet cOmplete Mini (Roche Diagnostics GmbH, Mannheim, Germany). Cell lysates (based on a certain amount of protein determined by Pierce BCA Protein Assay Kit (PI-23225) (Thermo Fisher Scientific Inc., Waltham, MA USA)) were electrophoresed using a Criterion Tris-HCl gel 4-20% (Bio-Rad Laboratories, Hercules, CA USA) and transferred to a nitrocellulose membrane (162-0115) (Bio-Rad Laboratories, Hercules, CA USA). After incubation for more than 1 h with a blocking buffer at room temperature, membranes were labeled with primary antibodies by overnight incubation at 4° C., followed by 1 hour incubation with horseradish peroxidase-conjugated (HRP-conjugated) secondary antibodies at room temperature. The following antibodies were used for immunoblot: phospho-Akt (S473) (#9271), phospho-Akt (T308) (#2965), total-Akt (#9272), phospho-S6 (Ser240/Ser244) (#2215L), S6 ribosomal protein (#2217), phospho-4E-BP1 (T37/T46) (#2855), total 4E-BP1 (#9644) (Cell Signaling Technology, Inc., Danvers, MA USA), FKBP12 (sc-28814) mouse β-actin (sc-8432) (Santa Cruz Biotechnology, Inc., Dallas, Texas USA), anti-rabbit IgG conjugated with horseradish peroxidase (HRP) (#7074), and anti-mouse IgG conjugated with HRP (#7076) (Cell Signaling Technology, Inc., Danvers, MA USA). Nitrocellulose membranes were exposed with SuperSignal® West Pico Chemiluminescent Substrate or Femto Maximum Sensitivity Substrate (Thermo Fisher Scientific Inc., Waltham, MA USA) and signals were recorded on a CL-Xposure film (Thermo Fisher Scientific Inc., Waltham, MA USA).

[11] = tested on: TORC1 and TORC2 outputs (p4E-BP1, pS6); assay: Drug washout experiment in SNU-449 cells; assay type: cell-based, human; details: 30 nM for 3 h, then washout
Experimental: Cellular Signaling Effects of Class mTOR Inhibitors. Cells were seeded in 60 mm cell culture dishes and incubated 1-2 days until 70-90% confluency. Cells were treated with compound solution in DMSO (1000×) and incubated at 37° C. in a 5% CO2 humidified incubator for a given length of time. […] After incubation for more than 1 h with a blocking buffer at room temperature, membranes were labeled with primary antibodies by overnight incubation at 4° C., followed by 1 hour incubation with horseradish peroxidase-conjugated (HRP-conjugated) secondary antibodies at room temperature. […] Nitrocellulose membranes were exposed with SuperSignal® West Pico Chemiluminescent Substrate or Femto Maximum Sensitivity Substrate (Thermo Fisher Scientific Inc., Waltham, MA USA) and signals were recorded on a CL-Xposure film (Thermo Fisher Scientific Inc., Waltham, MA USA).
Drug Washout Experiment. SNU-449 cells were treated with 30 nM of compounds for 3 h. The medium was aspirated out and cells were washed with fresh 10% FBS in RPMI1640 medium. Then, cells were incubated with fresh 10% FBS in RPMI1640 medium at 37° C. for described time period.

SMILES: COc1ccc2[nH]c(-c3nn(CCCCNC(=O)CCOCCOCCOCCOCCOCCOCCOCCOCCn4cc(COCCO[C@@H]5CC[C@@H](C[C@@H](C)[C@@H]6CC(=O)[C@H](C)/C=C(\C)[C@@H](O)[C@@H](OC)C(=O)[C@H](C)C[C@H](C)/C=C/C=C/C=C(\C)[C@@H](OC)C[C@@H]7CC[C@@H](C)[C@@](O)(O7)C(=O)C(=O)N7CCCC[C@H]7C(=O)O6)C[C@H]5OC)nn4)c4ncnc(N)c34)cc2c1 [Compound E1010]
inhibition of P-4EBP1 [1]: little or no inhibition
inhibition of pS6 (S240/244) [1]: inhibition
mTORC1 inhibition [1]: only partially inhibits mTORC1

SMILES: COC1CC2CCC(C)C(O)(O2)C(=O)C(=O)N2CCCCC2C(=O)OC(C(C)CC2CCC(OCCOCc3cn(CCOCCOCCOCCOCCOCCOCCOCCNC(=O)CCCCn4nc(-c5ccc6oc(N)nc6c5)c5c(N)ncnc54)nn3)C(OC)C2)CC(=O)C(C)C=C(C)C(O)C(OC)C(=O)C(C)CC(C)C=CC=CC=C1C (stereo not shown) [Compound M-1111, 40-O-(2-((1-(29-(4-amino-3-(2-aminobenzo[d]oxazol-5-yl)-1H-pyrazolo[3,4-d]pyrimidin-1-yl)-25-oxo-3,6,9,12,15,18,21-heptaoxa-24-azanonacosyl)-1H-1,2,3-triazol-4-yl)methoxy)ethyl)-rapamycin]
% inhibition at 10 μM HCT-15 ([2]; 10 μM): +++ (50% < +++ ≤ 100%)
EC50 [2]: 10 to 50 nM
% inhibition at 10 μM SNU-449 ([3]; 10 μM, SNU-449): ++ (25% < ++ ≤ 50%)
EC50 ([3]; SNU-449, 72 h after compound treatment): < 10 nM
mTORC1/2 downstream inhibition (pS6, p4E-BP1 and pAkt S473) [4]: stronger inhibition of mTORC1 signaling (pS6 and p4E-BP1) compared to mTORC2 downstream Akt S473 phosphorylation
p4E-BP1 inhibition [4]: complete p4E-BP1 inhibition at drug concentrations in which pAkt S473 is not inhibited
% inhibition at 10 μM SNU-398 ([5]; 10 μM): +++ (50% < +++ ≤ 100%)
EC50 [5]: < 10 nM
% inhibition at 10 μM 786-O ([6]; 10 μM): +++ (50% < +++ ≤ 100%)
EC50 ([6]; 72 h after compound treatment): 10 to 50 nM
% inhibition at 10 μM SNU-182 ([7]; 10 μM): ++ (25% < ++ ≤ 50%)
EC50 [7]: < 10 nM

SMILES: CO[C@H]1C[C@@H]2CC[C@@H](C)[C@@](O)(O2)C(=O)C(=O)N2CCCC[C@H]2C(=O)O[C@H]([C@H](C)C[C@@H]2CC[C@@H](OCCOCc3cn(CCCCn4nc(-c5ccc6oc(N)nc6c5)c5c(N)ncnc54)nn3)[C@H](OC)C2)CC(=O)[C@H](C)/C=C(\C)[C@@H](O)[C@@H](OC)C(=O)[C@H](C)C[C@H](C)/C=C/C=C/C=C/1C [Compound M-1115, 40-O-(2-((1-(4-(4-amino-3-(2-aminobenzo[d]oxazol-5-yl)-^1H-pyrazolo[3,4-d]pyrimidin-1-yl)butyl)-1H-1,2,3-triazol-4-yl)methoxy)ethyl)-rapamycin]
EC50 ([2]; Homo sapiens): > 100 nM
EC50 ([3]; Homo sapiens, SNU-449, 72 h): > 100 nM
p4E-BP1 inhibition [4]: weaker p4E-BP1 inhibition
EC50 ([5]; Homo sapiens): 10 to 50 nM
EC50 ([6]; Homo sapiens, 786-0, 72 h after compound treatment): > 100 nM
EC50 ([7]; Homo sapiens): 10 to 50 nM

SMILES: CO[C@H]1C[C@@H]2CC[C@@H](C)[C@@](O)(O2)C(=O)C(=O)N2CCCC[C@H]2C(=O)O[C@H]([C@H](C)C[C@@H]2CC[C@@H](OCCOCc3cn(CCOCCOCCOCCOCCC(=O)NCCCCn4nc(-c5ccc6oc(N)nc6c5)c5c(N)ncnc54)nn3)[C@H](OC)C2)CC(=O)[C@H](C)/C=C(\C)[C@@H](O)[C@@H](OC)C(=O)[C@H](C)C[C@H](C)/C=C/C=C/C=C/1C [Compound M-3059, 40-O-(2-((1-(20-(4-amino-3-(2-aminobenzo[d]oxazol-5-yl)-1H-pyrazolo[3,4-d]pyrimidin-1-yl)-15-oxo-3,6,9,12-tetraoxa-16-azaicosyl)-1H-1,2,3-triazol-4-yl)methoxy)ethyl)-rapamycin]
inhibition at 10 µM ([3]; Homo sapiens): < 25%
inhibition at 10 µM ([5]; Homo sapiens): 50 to 100%
inhibition at 10 µM ([7]; Homo sapiens): < 25%

IC50 [8]: > 10 µM
SMILES: COc1ccc2[nH]c(-c3nn(C(C)C)c4ncnc(N)c34)cc2c1 [MeO-PP242]

SMILES: CO[C@H]1C[C@@H]2CC[C@@H](C)[C@@](O)(O2)C(=O)C(=O)N2CCCC[C@H]2C(=O)O[C@H]([C@H](C)C[C@@H]2CC[C@@H](O)[C@H](OC)C2)CC(=O)[C@H](C)/C=C(\C)[C@@H](O)[C@@H](OC)C(=O)[C@H](C)C[C@H](C)/C=C/C=C/C=C/1C [Rapamycin, (3 S,6R,7E,9R,10R,12R,14S,15E,17E,19E,21S,23 S,26R,27R,34aS)-9,10,12,13,14,21,22,23,24,25,26,27,32,33,34,34a-hexadecahydro-9,27-dihydroxy-3-[(1R)-2-[(1S,3R,4R)-4-hydroxy-3-methoxycyclohexyl]-1-methylethyl]-10,21-dimethoxy-6,8,12,14,20,26-hexamethyl-23,27-epoxy-3H-pyrido[2,1-c][1,4]-oxaazacyclohentriacontine-1,5,11,28,29(4H,6H,31H)-pentone, reference compound]
inhibition at 10 µM ([2]; Homo sapiens, read-out: % inhibition at 10 μM HCT-15, 10 μM): 25 to 50%
inhibition at 10 µM ([3]; Homo sapiens): < 25%
blood glucose level [9]: no increase in blood glucose levels
inhibition at 10 µM ([5]; Homo sapiens): 25 to 50%
p4E-BP1 inhibition, time course [10]: moderate inhibitory activity
phosphorylation of Akt S473, time course [10]: transient feedback activation on Akt S473 at 1 and 3 h, and then a slight inhibition was observed at 24 h
maintenance of effects after washout [11]: maintained longer after washout compared to asTORi
inhibition at 10 µM ([6]; Homo sapiens, 786-0, read-out: % inhibition at 10 μM 786-O, 10 μM): < 25%
inhibition at 10 µM ([7]; Homo sapiens): < 25%

Reference: patent publication US12097262B2, “mTORC1 inhibitors” (THE REGENTS OF THE UNIVERSITY OF CALIFORNIA, priority 2014, dated 2024)
